{
  "source": "paper PMC6754293",
  "about": "(Cell chemical biology, 2019)",
  "key": {"[1]": {"system": "tyrosine phosphorylated FER in H1155 cells", "experiment": "pY immunoprecipitation of FER", "format": "cell-based", "conditions": "3 hours, 1 μM"}, "[2]": {"system": "FAK autophosphorylation", "experiment": "FAK autophosphorylation immunoblot", "format": "cell-based", "conditions": "at the concentrations used"}, "[3]": {"system": "SCLC cell lines", "experiment": "viability of SCLC cell lines", "format": "cell-based", "conditions": "72 hours treatment"}, "[4]": {"system": "NSCLC cell lines", "experiment": "viability-based drug screen and dose response", "conditions": "72 hours treatment; screen at 0.5 μM and 2.5 μM, confirmed in 14 NSCLC cell lines"}, "[5]": {"system": "H1155 cells", "experiment": "H1155 cell viability with tool compounds alone or combined", "format": "cell-based", "conditions": "compared to AURKB inhibition"}, "[6]": {"system": "MEK2", "conditions": "read-out: IC50 MEK2; second value of MEK1/2 pair; ref Yamaguchi et al., 2011; cited from earlier work"}, "[7]": {"biological_target": "T1, AURKA (Homo sapiens, UniProt O14965)", "T1 sequence (O14965 1-403)": "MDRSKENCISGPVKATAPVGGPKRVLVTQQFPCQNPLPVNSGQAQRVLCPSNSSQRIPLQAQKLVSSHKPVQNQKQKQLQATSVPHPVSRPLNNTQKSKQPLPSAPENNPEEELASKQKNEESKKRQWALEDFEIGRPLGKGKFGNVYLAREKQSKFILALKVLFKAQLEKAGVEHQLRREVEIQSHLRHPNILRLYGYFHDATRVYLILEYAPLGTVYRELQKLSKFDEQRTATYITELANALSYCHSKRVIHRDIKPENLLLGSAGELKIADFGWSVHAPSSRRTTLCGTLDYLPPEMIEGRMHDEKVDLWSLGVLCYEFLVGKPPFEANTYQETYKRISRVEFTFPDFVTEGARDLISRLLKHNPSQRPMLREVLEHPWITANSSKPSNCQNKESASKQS", "experiment": "in vitro kinase assay AURKA", "format": "biochemical", "conditions": "10 μM ATP; compared with cabozantinib"}, "[8]": {"biological_target": "SRC (Homo sapiens, UniProt P12931)", "sequence (P12931 whole entry)": "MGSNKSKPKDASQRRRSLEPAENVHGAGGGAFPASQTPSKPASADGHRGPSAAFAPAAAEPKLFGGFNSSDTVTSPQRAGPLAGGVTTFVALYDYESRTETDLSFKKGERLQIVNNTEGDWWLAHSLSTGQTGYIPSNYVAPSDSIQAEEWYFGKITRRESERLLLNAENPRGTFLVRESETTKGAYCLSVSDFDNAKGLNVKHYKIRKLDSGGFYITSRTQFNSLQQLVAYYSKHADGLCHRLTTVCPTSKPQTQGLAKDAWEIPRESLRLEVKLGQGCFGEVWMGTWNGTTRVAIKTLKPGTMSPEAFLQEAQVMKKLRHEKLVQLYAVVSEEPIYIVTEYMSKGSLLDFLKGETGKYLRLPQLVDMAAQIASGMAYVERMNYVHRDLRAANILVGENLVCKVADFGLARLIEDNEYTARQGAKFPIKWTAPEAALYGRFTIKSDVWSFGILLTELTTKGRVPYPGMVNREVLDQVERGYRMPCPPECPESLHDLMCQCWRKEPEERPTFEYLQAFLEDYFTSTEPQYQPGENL", "experiment": "in vitro kinase assay SRC", "format": "biochemical", "conditions": "10 μM ATP; compared with cabozantinib"}, "[9]": {"system": "A427 cells", "experiment": "crystal violet clonogenic assay", "format": "cell-based", "conditions": "10 days"}, "[10]": {"biological_target": "MEK1 (Homo sapiens, UniProt Q02750)", "sequence (Q02750 whole entry)": "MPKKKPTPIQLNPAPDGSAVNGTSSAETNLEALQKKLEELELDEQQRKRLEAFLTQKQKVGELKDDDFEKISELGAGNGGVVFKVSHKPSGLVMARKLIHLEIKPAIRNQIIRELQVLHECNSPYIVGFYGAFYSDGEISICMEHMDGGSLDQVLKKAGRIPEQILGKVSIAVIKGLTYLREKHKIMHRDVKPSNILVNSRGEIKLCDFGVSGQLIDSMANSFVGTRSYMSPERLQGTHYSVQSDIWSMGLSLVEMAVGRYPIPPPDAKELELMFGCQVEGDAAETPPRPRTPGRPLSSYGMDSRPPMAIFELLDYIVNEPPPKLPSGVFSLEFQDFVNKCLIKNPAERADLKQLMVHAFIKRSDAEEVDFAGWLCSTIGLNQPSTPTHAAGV", "experiment": "in vitro kinase assay MEK1", "format": "biochemical", "conditions": "10 μM ATP; compared with cabozantinib"}, "[11]": {"system": "histone H3 at S10 (downstream target of AURKB)", "experiment": "Western blot of pH3", "format": "cell-based", "conditions": "H1155 cells, 6 hours, 0.05, 0.25 and 0.5 μM"}, "[12]": {"biological_target": "FER (Homo sapiens, UniProt P16591)", "sequence (P16591 whole entry)": "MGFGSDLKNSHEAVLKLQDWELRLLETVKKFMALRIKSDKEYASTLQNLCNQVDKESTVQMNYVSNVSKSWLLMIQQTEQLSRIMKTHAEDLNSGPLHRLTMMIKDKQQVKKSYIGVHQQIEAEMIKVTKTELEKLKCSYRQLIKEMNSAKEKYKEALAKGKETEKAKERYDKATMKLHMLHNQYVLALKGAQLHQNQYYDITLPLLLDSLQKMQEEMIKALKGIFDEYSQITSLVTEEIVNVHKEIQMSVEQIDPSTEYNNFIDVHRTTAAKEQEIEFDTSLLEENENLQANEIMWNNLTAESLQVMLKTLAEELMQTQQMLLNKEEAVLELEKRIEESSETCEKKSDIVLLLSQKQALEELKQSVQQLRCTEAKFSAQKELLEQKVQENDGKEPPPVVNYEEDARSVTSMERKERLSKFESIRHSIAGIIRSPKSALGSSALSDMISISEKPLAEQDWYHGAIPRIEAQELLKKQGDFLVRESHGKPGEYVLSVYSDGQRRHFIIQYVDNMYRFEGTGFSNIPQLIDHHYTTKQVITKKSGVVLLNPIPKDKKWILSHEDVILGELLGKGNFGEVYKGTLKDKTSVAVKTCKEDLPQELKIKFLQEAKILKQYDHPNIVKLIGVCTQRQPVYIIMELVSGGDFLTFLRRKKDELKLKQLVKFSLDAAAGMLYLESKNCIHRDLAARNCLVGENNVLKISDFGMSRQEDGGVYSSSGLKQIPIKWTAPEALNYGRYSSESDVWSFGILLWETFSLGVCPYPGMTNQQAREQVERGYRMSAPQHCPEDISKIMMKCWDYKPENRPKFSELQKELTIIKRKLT", "experiment": "in vitro kinase assay FER", "format": "biochemical", "conditions": "10 μM ATP; compared with cabozantinib"}, "[13]": {"system": "pERK at T202/Y204 (substrate sites of MEK1/2)", "experiment": "Western blot of pERK", "format": "cell-based", "conditions": "H1155 and A427 cells; 1 hour; 0.1, 0.5 and 1 μM"}, "[14]": {"biological_target": "AURKB (Homo sapiens, UniProt Q96GD4)", "sequence (Q96GD4 whole entry)": "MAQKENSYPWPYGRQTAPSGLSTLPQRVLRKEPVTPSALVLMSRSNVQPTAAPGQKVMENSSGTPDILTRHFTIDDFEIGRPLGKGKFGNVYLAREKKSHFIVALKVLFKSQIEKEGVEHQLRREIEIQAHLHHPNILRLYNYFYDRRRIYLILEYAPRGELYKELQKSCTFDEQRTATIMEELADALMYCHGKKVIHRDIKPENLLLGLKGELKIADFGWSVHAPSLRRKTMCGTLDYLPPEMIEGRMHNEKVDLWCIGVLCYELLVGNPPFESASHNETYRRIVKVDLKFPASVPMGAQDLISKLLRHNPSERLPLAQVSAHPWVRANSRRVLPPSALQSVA", "experiment": "in vitro kinase assay AURKB", "format": "biochemical", "conditions": "10 μM ATP; compared with cabozantinib"}, "[15]": {"system": "SRC autophosphorylation at Y419 in H1155 cells", "experiment": "SRC autophosphorylation at Y419", "format": "cell-based", "conditions": "data not shown"}, "[16]": {"system": "H1155 and A427 cells", "experiment": "cell cycle analysis", "format": "cell-based", "conditions": "6 hours"}, "[17]": {"system": "H1155 and A427 cells", "format": "cell-based", "conditions": "0.5 μM and 1 μM, 24 hours (blot), 24 and 48 hours (imaging)"}, "[18]": {"biological_target": "MET (Homo sapiens, UniProt P08581)", "sequence (P08581 25-1390)": "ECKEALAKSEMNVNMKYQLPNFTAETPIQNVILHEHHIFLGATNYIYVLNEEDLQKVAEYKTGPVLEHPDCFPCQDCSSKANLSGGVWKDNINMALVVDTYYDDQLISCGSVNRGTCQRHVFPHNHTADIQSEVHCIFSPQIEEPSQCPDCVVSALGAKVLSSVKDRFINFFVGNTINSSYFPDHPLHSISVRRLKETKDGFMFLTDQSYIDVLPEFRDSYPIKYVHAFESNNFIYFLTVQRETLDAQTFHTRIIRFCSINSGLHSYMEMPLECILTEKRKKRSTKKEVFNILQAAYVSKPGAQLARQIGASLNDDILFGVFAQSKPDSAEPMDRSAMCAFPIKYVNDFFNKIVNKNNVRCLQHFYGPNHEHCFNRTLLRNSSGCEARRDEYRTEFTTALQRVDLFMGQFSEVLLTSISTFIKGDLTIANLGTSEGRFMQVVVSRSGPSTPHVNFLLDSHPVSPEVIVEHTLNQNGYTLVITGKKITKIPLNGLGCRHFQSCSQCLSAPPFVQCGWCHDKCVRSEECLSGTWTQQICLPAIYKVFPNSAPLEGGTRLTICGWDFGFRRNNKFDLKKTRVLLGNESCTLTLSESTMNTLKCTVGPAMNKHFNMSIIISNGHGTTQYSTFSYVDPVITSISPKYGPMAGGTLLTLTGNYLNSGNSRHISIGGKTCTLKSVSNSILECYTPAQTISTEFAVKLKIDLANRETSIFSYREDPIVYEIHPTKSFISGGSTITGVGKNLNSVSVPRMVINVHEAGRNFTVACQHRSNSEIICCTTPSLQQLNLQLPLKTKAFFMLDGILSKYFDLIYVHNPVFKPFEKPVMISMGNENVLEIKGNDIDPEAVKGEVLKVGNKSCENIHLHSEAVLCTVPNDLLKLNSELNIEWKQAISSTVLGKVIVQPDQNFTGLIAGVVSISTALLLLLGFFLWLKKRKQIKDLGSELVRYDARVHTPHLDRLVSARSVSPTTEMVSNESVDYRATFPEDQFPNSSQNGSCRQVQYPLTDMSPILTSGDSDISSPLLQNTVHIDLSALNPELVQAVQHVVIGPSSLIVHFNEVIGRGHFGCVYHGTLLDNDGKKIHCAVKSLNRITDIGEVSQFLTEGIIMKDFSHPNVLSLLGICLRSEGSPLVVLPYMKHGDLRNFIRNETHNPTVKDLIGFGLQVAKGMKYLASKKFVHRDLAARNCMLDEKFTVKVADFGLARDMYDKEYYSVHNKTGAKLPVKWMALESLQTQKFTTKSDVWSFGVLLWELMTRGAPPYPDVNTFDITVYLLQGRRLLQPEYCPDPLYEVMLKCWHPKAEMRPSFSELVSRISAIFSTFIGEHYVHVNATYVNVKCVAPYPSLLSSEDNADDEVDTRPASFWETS", "experiment": "pulldowns with H1648 lysate and in vitro MET kinase assays of probes", "format": "biochemical"}, "[19]": {"system": "MET autophosphorylation in H1648 cells"}},
  "data": [
    {"smiles": "CNC(=O)c1c(F)cccc1Nc1nc(Nc2cc3c(cc2OC)CCN3C(=O)CN(C)C)nc2[nH]ccc12", "note": "[GSK1838705A]", "values": [
      {"measurement": "phosphorylation changes of FER (pY immunoprecipitation)", "setting": "[1]", "value": "phosphorylation changes of FER"},
      {"measurement": "FAK autophosphorylation", "setting": "[2]", "value": "not affected"}
    ]},
    {"smiles": "CC1(C)CNc2cc(NC(=O)c3cccnc3NCc3ccncc3)ccc21", "note": "[motesanib]", "values": [
      {"measurement": "effect on viability of SCLC cells", "setting": "[3]", "value": "no effect on SCLC cells"},
      {"measurement": "effect on viability of NSCLC cell lines", "setting": "[4]", "value": "little to no effects"}
    ]},
    {"smiles": "OCCn1cc(-c2cnc3nnn(Cc4ccc5ncccc5c4)c3n2)cn1", "note": "[PF-04217903]", "values": [
      {"measurement": "effect on viability of SCLC cells", "setting": "[3]", "value": "no effect on SCLC cells"},
      {"measurement": "effect on viability of NSCLC cell lines", "setting": "[4]", "value": "little to no effects"}
    ]},
    {"smiles": "COc1cc(Nc2ncc3c(n2)-c2ccc(Cl)cc2C(c2c(F)cccc2OC)=NC3)ccc1C(=O)O", "note": "[alisertib]", "values": [
      {"measurement": "decrease of H1155 viability on combining with FER and MEK1/2 inhibition", "setting": "[5]", "value": "only in a minor decrease of viability"}
    ]},
    {"smiles": "CC(=O)Nc1cccc(-n2c(=O)n(C3CC3)c(=O)c3c(Nc4ccc(I)cc4F)n(C)c(=O)c(C)c32)c1", "note": "[trametinib]", "values": [
      {"measurement": "IC50", "setting": "[6]", "value": "[…]"}
    ]},
    {"smiles": "COc1cc2c(Oc3ccc(NC(=O)C4(C(=O)Nc5ccc(F)cc5)CC4)cc3F)ccnc2cc1OCCCN1CCOCC1", "note": "[foretinib]", "values": [
      {"measurement": "phosphorylation changes of FER (pY immunoprecipitation)", "setting": "[1]", "value": "phosphorylation changes of FER"},
      {"measurement": "AURKA inhibition, in vitro kinase assay", "setting": "[7]", "value": "more potently inhibited by foretinib than by cabozantinib"},
      {"measurement": "effect on viability of SCLC cells", "setting": "[3]", "value": "potently inhibited viability of MYC-amplified SCLC cells, but not SCLC cells without MYC amplification"},
      {"measurement": "SRC inhibition, in vitro kinase assay", "setting": "[8]", "value": "more potently inhibited by foretinib than by cabozantinib"},
      {"measurement": "inhibition of A427 cell growth, clonogenic assay", "setting": "[9]", "value": "inhibited A427 cell growth"},
      {"measurement": "MEK1 inhibition, in vitro kinase assay", "setting": "[10]", "value": "more potently inhibited by foretinib than by cabozantinib"},
      {"measurement": "phosphorylation of histone H3 at S10", "setting": "[11]", "value": "decreased phosphorylation of histone H3 at S10"},
      {"measurement": "FER inhibition, in vitro kinase assay", "setting": "[12]", "value": "more potently inhibited by foretinib than by cabozantinib"},
      {"measurement": "phosphorylation of pERK at T202/Y204", "setting": "[13]", "value": "decreased phosphorylation of pERK"},
      {"measurement": "AURKB inhibition, in vitro kinase assay", "setting": "[14]", "value": "more potently inhibited by foretinib than by cabozantinib"},
      {"measurement": "FAK autophosphorylation", "setting": "[2]", "value": "not affected"},
      {"measurement": "effect on viability of NSCLC cell lines", "setting": "[4]", "value": "much higher cellular activity compared to cabozantinib"},
      {"measurement": "SRC autophosphorylation at Y419", "setting": "[15]", "value": "did not decrease SRC autophosphorylation"},
      {"measurement": "drug-induced cell cycle changes", "setting": "[16]", "value": "pronounced accumulation of cells in G2 phase"},
      {"measurement": "induction of apoptosis (PARP1 and caspase 3 cleavage, caspase 3/7)", "setting": "[17]", "value": "induced apoptosis"}
    ]},
    {"smiles": "COc1cc2c(Oc3ccc(N(C(=O)C4(C(N)=O)CC4)c4ccc(F)cc4)cc3F)ccnc2cc1OCCCN1CCN(CCCN)CC1", "note": "[i-foretinib, N-(4-((7-(3-(4-(3-aminopropyl)piperazin-1-yl)propoxy)-6-methoxyquinolin-4-yl)oxy)-3-fluorophenyl)-N-(4-fluorophenyl)cyclopropane-1,1-dicarboxamide]", "values": [
      {"measurement": "ability to bind and inhibit MET", "setting": "[18]", "value": "retained their ability to bind and inhibit MET"}
    ]},
    {"smiles": "COc1cc2nccc(Oc3ccc(NC(=O)C4(C(=O)Nc5ccc(F)cc5)CC4)cc3)c2cc1OC", "note": "[cabozantinib]", "values": [
      {"measurement": "effect on viability of SCLC cells", "setting": "[3]", "value": "in contrast to cabozantinib"},
      {"measurement": "inhibition of A427 cell growth, clonogenic assay", "setting": "[9]", "value": "in contrast to cabozantinib"},
      {"measurement": "inhibition of MET autophosphorylation", "setting": "[19]", "value": "inhibited MET autophosphorylation"},
      {"measurement": "phosphorylation of pERK at T202/Y204", "setting": "[13]", "value": "in contrast to cabozantinib"},
      {"measurement": "effect on viability of NSCLC cell lines", "setting": "[4]", "value": "little to no effects"}
    ]}
  ]
}
